Thermal stability z-score data for 43 targets are collected here from the supplement of paper PMC12463676, “Small-molecule dissolution of stress granules by redox modulation benefits ALS models” (Nature Chemical Biology, 2025).

Compound in one experiment: NC(=O)CCCCC1CCSS1 [lipoamide]
Description: thermal stability z-score vs DMSO; higher = more thermally stabilized by treatment. As to conditions: HeLa, lipoamide concentration 100 µM. The procedure:
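Cellular thermal proteome profiling in HeLa cells. Cells were treated with 100 µM lipoamide for 1 h, with or without 1 mM arsenate for a further 1 h, then heated to ten temperatures (37-66.3 °C), and soluble protein was quantified by TMT mass spectrometry relative to 0.1% DMSO controls. The thermal stability score (sum of log2 fold changes minus the abundance score) was transformed to a z-score; mean of n = 3 experiments.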

Compound in another experiment: O=[As]([O-])(O)O.[K+] [potassium arsenate]
The description is as above. Particulars: HeLa; arsenate concentration 1 mM. How it is done: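 Cellular thermal proteome profiling in HeLa cells treated with 1 mM arsenate for 1 h (DMSO pretreatment), heated to ten temperatures (37-66.3 °C). Soluble protein was quantified by TMT mass spectrometry relative to DMSO controls; the thermal stability score was transformed to a z-score; mean of n = 3 experiments.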

Where [1] appears, read: arsenate co-treatment: 1 mM arsenate 1 h.
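Further: each temperature applied for 3 min, abundance score taken as mean log2 fold change at the two lowest temperatures, z-score obtained by mean subtraction and division by SD.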

Chain of UniProt Q5EBL8 (Q5EBL8 whole entry): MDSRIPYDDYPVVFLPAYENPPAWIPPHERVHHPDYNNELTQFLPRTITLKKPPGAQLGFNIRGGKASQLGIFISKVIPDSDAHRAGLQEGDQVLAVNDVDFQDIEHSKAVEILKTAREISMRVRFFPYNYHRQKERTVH
Chain of UniProt Q969T9 (Q969T9 whole entry): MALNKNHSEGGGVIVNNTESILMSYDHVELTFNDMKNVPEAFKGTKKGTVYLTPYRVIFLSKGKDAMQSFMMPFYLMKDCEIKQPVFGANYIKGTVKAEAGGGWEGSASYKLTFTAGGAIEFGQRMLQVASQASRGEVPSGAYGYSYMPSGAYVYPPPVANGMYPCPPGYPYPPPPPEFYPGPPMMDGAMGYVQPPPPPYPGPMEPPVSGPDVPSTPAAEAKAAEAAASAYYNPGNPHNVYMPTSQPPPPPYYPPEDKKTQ
Chain of UniProt O75182 (O75182 whole entry): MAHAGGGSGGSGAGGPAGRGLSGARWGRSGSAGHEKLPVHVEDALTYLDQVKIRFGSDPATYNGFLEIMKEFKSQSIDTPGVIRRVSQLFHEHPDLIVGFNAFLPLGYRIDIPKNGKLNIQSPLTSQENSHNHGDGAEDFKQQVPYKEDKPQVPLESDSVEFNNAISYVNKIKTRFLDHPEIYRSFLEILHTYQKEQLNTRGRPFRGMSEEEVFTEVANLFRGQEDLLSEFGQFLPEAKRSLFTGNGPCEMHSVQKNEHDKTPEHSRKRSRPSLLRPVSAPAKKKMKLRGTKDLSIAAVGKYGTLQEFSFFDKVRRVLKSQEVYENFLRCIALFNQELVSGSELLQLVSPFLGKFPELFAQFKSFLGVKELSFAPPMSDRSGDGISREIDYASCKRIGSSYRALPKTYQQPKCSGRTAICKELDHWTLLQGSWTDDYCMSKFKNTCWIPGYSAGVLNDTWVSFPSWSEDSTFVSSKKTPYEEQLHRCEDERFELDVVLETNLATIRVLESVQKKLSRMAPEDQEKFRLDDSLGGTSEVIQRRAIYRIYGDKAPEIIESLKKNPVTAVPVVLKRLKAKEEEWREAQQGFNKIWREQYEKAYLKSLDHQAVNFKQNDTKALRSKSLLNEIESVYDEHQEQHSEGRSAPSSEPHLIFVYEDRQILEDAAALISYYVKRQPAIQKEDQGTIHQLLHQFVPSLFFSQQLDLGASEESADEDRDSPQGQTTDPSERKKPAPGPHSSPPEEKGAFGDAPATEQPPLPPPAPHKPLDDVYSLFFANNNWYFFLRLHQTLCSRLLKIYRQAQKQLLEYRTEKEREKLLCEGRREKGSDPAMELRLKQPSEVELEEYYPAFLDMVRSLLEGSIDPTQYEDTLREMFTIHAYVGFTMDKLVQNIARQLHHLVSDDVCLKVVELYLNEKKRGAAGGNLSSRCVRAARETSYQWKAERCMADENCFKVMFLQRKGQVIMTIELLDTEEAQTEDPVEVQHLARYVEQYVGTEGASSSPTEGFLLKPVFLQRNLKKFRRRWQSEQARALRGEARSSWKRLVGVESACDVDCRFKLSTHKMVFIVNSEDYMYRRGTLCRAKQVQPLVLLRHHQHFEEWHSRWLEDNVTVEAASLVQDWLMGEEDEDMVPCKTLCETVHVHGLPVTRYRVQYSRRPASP
Chain of UniProt P31350 (P31350 whole entry): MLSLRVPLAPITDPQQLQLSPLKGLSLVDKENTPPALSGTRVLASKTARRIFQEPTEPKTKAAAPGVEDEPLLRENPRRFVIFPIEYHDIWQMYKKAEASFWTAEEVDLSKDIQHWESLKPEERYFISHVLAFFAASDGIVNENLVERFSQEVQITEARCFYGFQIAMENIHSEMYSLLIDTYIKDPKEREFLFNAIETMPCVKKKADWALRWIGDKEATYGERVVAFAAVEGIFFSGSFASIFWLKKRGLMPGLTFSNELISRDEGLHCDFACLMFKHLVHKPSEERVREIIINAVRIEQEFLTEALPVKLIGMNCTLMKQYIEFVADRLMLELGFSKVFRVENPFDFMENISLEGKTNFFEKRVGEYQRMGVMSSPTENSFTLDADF
Chain of UniProt P49757 (P49757 whole entry): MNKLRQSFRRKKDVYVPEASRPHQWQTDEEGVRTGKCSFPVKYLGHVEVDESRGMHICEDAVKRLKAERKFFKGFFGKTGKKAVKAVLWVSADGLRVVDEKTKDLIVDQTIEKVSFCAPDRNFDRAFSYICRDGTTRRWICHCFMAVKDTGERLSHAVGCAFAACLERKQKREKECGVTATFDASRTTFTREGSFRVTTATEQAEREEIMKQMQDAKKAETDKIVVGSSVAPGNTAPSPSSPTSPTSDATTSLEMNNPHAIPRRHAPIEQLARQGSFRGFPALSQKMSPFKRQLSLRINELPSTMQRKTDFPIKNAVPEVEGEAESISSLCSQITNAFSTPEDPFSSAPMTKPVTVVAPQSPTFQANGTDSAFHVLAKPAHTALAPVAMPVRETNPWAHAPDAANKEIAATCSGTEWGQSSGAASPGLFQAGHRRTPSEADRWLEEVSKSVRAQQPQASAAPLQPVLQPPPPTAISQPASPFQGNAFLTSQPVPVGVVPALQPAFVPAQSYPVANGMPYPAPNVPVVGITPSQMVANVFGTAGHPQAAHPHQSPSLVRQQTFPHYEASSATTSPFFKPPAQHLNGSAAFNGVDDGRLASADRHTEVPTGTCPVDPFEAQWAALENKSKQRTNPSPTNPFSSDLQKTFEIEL
Chain of UniProt P63104 (P63104 whole entry): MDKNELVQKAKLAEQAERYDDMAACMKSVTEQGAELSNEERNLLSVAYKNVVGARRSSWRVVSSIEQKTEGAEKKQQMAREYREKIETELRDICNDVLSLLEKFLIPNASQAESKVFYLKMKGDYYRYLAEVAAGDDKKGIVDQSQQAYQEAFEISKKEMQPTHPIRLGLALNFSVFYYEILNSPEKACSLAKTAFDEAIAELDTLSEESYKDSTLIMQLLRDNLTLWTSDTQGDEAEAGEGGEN
Chain of UniProt Q9UNE7 (Q9UNE7 whole entry): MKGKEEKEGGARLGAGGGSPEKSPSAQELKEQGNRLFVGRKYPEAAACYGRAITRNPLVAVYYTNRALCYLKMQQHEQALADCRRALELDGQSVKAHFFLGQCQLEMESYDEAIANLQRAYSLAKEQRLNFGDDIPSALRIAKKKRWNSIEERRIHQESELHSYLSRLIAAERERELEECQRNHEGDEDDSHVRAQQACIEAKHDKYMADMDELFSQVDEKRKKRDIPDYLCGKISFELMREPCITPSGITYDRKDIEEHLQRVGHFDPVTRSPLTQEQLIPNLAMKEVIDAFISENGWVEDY
Chain of UniProt P06241 (P06241 whole entry, looked up): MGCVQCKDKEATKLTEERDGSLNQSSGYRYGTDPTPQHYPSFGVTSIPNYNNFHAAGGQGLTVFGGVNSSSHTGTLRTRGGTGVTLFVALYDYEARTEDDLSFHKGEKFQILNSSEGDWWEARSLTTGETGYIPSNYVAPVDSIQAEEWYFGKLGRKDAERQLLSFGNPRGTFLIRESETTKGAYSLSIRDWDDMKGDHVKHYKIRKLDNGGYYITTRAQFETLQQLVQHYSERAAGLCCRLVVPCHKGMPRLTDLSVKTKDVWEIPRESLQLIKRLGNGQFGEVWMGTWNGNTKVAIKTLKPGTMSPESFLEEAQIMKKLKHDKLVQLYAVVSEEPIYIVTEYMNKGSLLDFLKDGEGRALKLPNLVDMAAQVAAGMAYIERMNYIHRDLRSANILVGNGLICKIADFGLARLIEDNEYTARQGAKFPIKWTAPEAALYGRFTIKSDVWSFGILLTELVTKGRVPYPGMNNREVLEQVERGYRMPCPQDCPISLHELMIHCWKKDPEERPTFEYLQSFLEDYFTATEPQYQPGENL
Chain of UniProt Q9NZ43 (Q9NZ43 whole entry): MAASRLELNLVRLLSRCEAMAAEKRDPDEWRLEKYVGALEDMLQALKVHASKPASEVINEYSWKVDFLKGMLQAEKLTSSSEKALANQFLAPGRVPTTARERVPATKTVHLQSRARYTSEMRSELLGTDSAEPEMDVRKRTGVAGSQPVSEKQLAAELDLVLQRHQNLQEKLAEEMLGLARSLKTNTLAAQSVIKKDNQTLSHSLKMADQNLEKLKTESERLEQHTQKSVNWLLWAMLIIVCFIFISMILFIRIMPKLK
Chain of UniProt Q8NC51 (Q8NC51 whole entry): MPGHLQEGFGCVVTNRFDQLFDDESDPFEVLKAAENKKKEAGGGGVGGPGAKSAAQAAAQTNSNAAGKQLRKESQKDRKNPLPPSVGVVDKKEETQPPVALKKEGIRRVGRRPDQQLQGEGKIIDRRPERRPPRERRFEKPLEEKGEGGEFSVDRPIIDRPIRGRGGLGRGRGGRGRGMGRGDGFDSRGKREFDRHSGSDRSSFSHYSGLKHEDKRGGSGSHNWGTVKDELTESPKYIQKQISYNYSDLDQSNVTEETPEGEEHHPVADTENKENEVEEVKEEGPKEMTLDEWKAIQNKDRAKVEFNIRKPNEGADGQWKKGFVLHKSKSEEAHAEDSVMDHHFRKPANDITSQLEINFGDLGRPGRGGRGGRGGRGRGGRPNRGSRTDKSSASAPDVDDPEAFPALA
Chain of UniProt O75821 (O75821 whole entry): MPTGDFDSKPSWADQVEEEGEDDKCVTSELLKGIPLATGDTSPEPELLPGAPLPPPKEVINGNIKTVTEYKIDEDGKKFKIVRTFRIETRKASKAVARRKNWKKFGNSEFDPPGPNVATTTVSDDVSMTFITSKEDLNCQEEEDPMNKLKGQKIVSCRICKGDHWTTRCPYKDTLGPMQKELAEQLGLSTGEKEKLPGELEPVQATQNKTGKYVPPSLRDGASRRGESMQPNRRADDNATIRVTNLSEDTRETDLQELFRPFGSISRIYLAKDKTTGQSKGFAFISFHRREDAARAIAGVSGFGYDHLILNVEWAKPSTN
Chain of UniProt P30626 (P30626 whole entry): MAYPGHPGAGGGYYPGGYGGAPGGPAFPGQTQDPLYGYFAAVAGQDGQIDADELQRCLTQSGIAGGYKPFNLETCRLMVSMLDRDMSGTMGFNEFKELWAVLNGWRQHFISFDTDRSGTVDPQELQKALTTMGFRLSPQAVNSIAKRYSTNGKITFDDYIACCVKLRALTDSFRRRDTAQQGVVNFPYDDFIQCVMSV

As to MKRN2 (UniProt Q9H000), the thermal stability z-score in the experiment with lipoamide (setting [1]) was 0.303; with lipoamide (arsenate co-treatment: none), 0.829; in the experiment with potassium arsenate, -0.0571.
Regarding NUDT4 (UniProt Q9NZJ9), the values for the thermal stability z-score with lipoamide (setting [1]), with lipoamide (arsenate co-treatment: none) and with potassium arsenate were -0.239, -0.659 and -0.881, respectively.
For the target HEATR6 (UniProt Q6AI08), the thermal stability z-score came out at 0.393 with lipoamide (setting [1]), 0.194 with lipoamide (arsenate co-treatment: none) and 0.868 with potassium arsenate.
For the target TCEB2 (UniProt Q15370), the results for the thermal stability z-score with lipoamide (setting [1]), with lipoamide (arsenate co-treatment: none) and with potassium arsenate were 0.764, 0.455 and 0.154, respectively.
The corresponding values for TMEM59 (UniProt Q9BXS4) are -1.01, -0.383 and -0.0618.
As for RRM2 (UniProt P31350), the thermal stability z-score in the experiment with lipoamide (setting [1]) came out at 0.385; with lipoamide (arsenate co-treatment: none), 0.731; in the experiment with potassium arsenate, 0.674.
The corresponding values for SERBP1 (UniProt Q8NC51) are 0.533, 0.5 and -0.0206.
With MPZL2 (UniProt O60487), the thermal stability z-score is 0.503 with lipoamide (setting [1]), -0.0637 in the experiment with lipoamide (arsenate co-treatment: none) and -0.0559 with potassium arsenate.
For the target PRMT7 (UniProt Q9NVM4), the thermal stability z-score with lipoamide (setting [1]) was -0.363; in the experiment with lipoamide (arsenate co-treatment: none), 0.259; with potassium arsenate, 1.47.
The corresponding values for ERCC5 (UniProt P28715) are 0.121, 0.0638 and 0.401.
Turning to NUMB (UniProt P49757), the thermal stability z-score with lipoamide (setting [1]) was -0.402; with lipoamide (arsenate co-treatment: none) it was 0.201; in the experiment with potassium arsenate it was -2.09.
In the same order, the values of PSMD6 (UniProt Q15008) are -0.22, 0.0409 and -0.212.
For SORCS2 (UniProt Q96PQ0), the values for the thermal stability z-score with lipoamide (setting [1]), with lipoamide (arsenate co-treatment: none) and with potassium arsenate were -0.156, -0.45 and -0.319, respectively.
The corresponding values for RNF214 (UniProt Q8ND24) are -0.0786, -0.0159 and -0.33.
As to YWHAZ (UniProt P63104), the results for the thermal stability z-score in the experiment with lipoamide (setting [1]), with lipoamide (arsenate co-treatment: none) and in the experiment with potassium arsenate were 0.146, -0.0541 and -0.195, respectively.
Regarding CD320 (UniProt Q9NPF0), the results for the thermal stability z-score with lipoamide (setting [1]), in the experiment with lipoamide (arsenate co-treatment: none) and with potassium arsenate were 1.65, 0.874 and 1.01, respectively.
As for WBP2 (UniProt Q969T9), the thermal stability z-score with lipoamide (setting [1]) is 0.689; in the experiment with lipoamide (arsenate co-treatment: none), 0.465; with potassium arsenate, -0.0559.
The corresponding values for PHLDA2 (UniProt Q53GA4) are -0.116, 0.13 and 1.41.
The corresponding values for PDZD11 (UniProt Q5EBL8) are -0.0819, -0.0179 and 0.0963.
The corresponding values for STUB1 (UniProt Q9UNE7) are -0.065, -0.23 and 0.207.
Turning to SNX5 (UniProt Q9Y5X3), the thermal stability z-score was -0.497 with lipoamide (setting [1]), -0.998 with lipoamide (arsenate co-treatment: none) and -0.458 in the experiment with potassium arsenate.
Take PRRC2B (UniProt Q5JSZ5): the thermal stability z-score with lipoamide (setting [1]) is -0.32; with lipoamide (arsenate co-treatment: none), -0.119; with potassium arsenate, -0.412.
For the target TNIP2 (UniProt Q8NFZ5), the thermal stability z-score was 0.0235 in the experiment with lipoamide (setting [1]), 0.193 with lipoamide (arsenate co-treatment: none) and 0.126 in the experiment with potassium arsenate.
Turning to USE1 (UniProt Q9NZ43), the thermal stability z-score came out at 0.872 with lipoamide (setting [1]), 0.37 with lipoamide (arsenate co-treatment: none) and 1.13 in the experiment with potassium arsenate.
The corresponding values for GOT1 (UniProt P17174) are 0.656, 0.623 and 0.118.
In the same order, the values of EDEM1 (UniProt Q92611) are -0.0592, -0.0491 and 0.0795.
With NOP2 (UniProt P46087), the thermal stability z-score was 0.976 with lipoamide (setting [1]), -0.163 with lipoamide (arsenate co-treatment: none) and -0.016 in the experiment with potassium arsenate.
The corresponding values for MBD3 (UniProt O95983) are 0.379, 0.252 and -0.483.
As for SIN3B (UniProt O75182), the thermal stability z-score with lipoamide (setting [1]) is 0.0836; with lipoamide (arsenate co-treatment: none) it was 0.279; with potassium arsenate, -0.327.
The corresponding values for EIF3G (UniProt O75821) are 0.0353, -0.0823 and 0.711.
In the same order, the values of HNRNPLL|HNRPLL are -0.126, -0.082 and -0.917.
Regarding RFC5 (UniProt P40937), the thermal stability z-score is -0.341 with lipoamide (setting [1]), -0.0735 with lipoamide (arsenate co-treatment: none) and 0.971 with potassium arsenate.
In the same order, the values of SRI (UniProt P30626) are 1.28, 0.78 and 0.177.
In the same order, the values of NUDT21 (UniProt O43809) are 1.57, 0.0301 and -0.633.
In the same order, the values of CDC42BPB (UniProt Q9Y5S2) are -0.57, -0.124 and -0.221.
As for FAM96A (UniProt Q9H5X1), the thermal stability z-score was -0.0873 with lipoamide (setting [1]), -0.652 with lipoamide (arsenate co-treatment: none) and -1.34 in the experiment with potassium arsenate.
In the same order, the values of BBX (UniProt Q8WY36) are -0.177, -0.12 and -0.402.
In the same order, the values of ZC3H4 (UniProt Q9UPT8) are 0.112, -0.278 and -1.7.
The corresponding values for OGFR (UniProt Q9NZT2) are 0.681, 0.943 and 1.72.
In the case of TBCA (UniProt O75347), the thermal stability z-score in the experiment with lipoamide (setting [1]) was 0.458; with lipoamide (arsenate co-treatment: none) it was 1.12; in the experiment with potassium arsenate, 0.264.
Consider TSSC1 (UniProt Q53HC9), for which the thermal stability z-score with lipoamide (setting [1]) is 0.436; in the experiment with lipoamide (arsenate co-treatment: none) it was -0.204; with potassium arsenate it was -0.25.
In the same order, the values of PRMT9 (UniProt Q6P2P2) are 0.25, 0.0769 and 0.171.
In the same order, the values of FYN (UniProt P06241) are 0.0671, -0.0839 and -1.04.
